Results reported in patent US20230227392A1, “A APPLICATION OF CYATHANE DITERPENOIDS IN PREPARATION OF DRUGS FOR TREATING NEUROINFLAMMATION” (Northwest A&F University, priority 2022, published 2023).
“Also recorded” adds a separate entry of the source.

Columns and labels:
Type in all cases: cell-based, mouse
LPS-induced BV-2 cells [1] = assay: mRNA levels of M1/M2 biomarkers by qRT-PCR; conditions: FIG. 3; for mRNA expression of COX-2 induced by the LPS / mRNA level of IL-10: 10 μM / tested concentration; for mRNA expression of IL-6 induced by the LPS / mRNA level of ARG-1: 10 μM; for mRNA expression of TNF-α induced by the LPS: 1 at 10 μM; for mRNA level of IL-10 / mRNA level of ARG-1: M2 marker
Procedure: In order to detect the regulation of M1/M2 phenotype switch by 1 and 6, the effects on the mRNA expression of representative M1 and M2 biomarkers in the LPS-stimulated BV-2 cells were evaluated. The cells were incubated into a 6 cm of culture dish (5 mL/dish) at a density of 2×10^5 cfu, and cultured in a constant-temperature incubator of 5% CO2 at 37° C. for 12 h. According to the manufacturer's instructions, total RNA was extracted by Trizol, and concentration and purity thereof were measured by a UV-Vis spectrophotometer. 2 μg of isolated RNA was reversely transcribed into cDNA by Prime Script RTMaster Mix kit. By using a Syr Green quantitative RT-PCR kit, an mRNA level was evaluated by qRT-PCR response. β-actin was used as an internal standard. The primer sequences are as follows (Table 1).

LPS-induced BV-2 cells [2] = assay: M1/M2 marker protein expression by Western blotting; conditions: FIG. 5; for M1/M2 polarization of the LPS-induced BV-2 cells: conclusion from marker expression
Procedure: The protein expression of iNOS, COX-2(M1 marker) and ARG-1(M2 marker) was analyzed by Western blotting. The BV-2 cells (5×10^5 cfu) cultured in a 6 cm dish were pretreated with 1 or 6 ([…]) respectively for 1 h, and then 1 μg/ml LPS was added for 24 h. The cells were lysed in an ice-cold RIPA lysis buffer with a mixed solution of 10 mM of PMSF and 1% of protein inhibitors. The cytosol lysate was centrifuged at 4° C. at 12000 rpm for 30 minutes. Total protein was isolated from the lysate and their concentration was determined by BCA.
A sample was separated by 8%-12% SDS-PAGE and transferred to a […] PVDF membrane. The membrane was blocked with 5% BSA in TBST (20 mM of Tris-HCl, 150 mM of NaCl, 0.1% of Tween-20) for 1 h at room temperature, and then incubated with appropriate primary antibodies: anti-β-tubulin (1:1000), anti-GAPDH (1:1000), anti-iNOS (1:500), anti-COX-2 (1:1000) and anti-ARG-1 (1:500) at 4° C. overnight. The membrane was washed in the TBST for 3×5 minutes, and then incubated with the secondary antibody bound to appropriate peroxidase (HRP) and left at room temperature for 1 h. The blot was washed in the TBST for 3×5 minutes and exposed to an ECL chemiluminescence reagent. At last, the signal was detected by the Bio-Rad ChemiDoc XRS+ system.

[3] = test system: LPS-induced BV-2 microglia; assay: Inhibition of nitric oxide (NO) production, Griess method; conditions: 1 μg/mL LPS + 10 μM compound, 24 h, FIG. 2
Procedure: The mouse microglia (BV-2) were cultured in the DMEM culture medium containing 10% of fetal bovine serum (FBS) and 1% of antibiotics (100 U/mL of […] and penicillin) at 37° C. in the incubator of 5% CO2.
NO is an important inflammatory mediator. Excessive production of NO is common in neurons and glial cells of brains with ND^[8]. Griess reagent was configured to evaluate the influence on NO production in order to measure the anti-inflammatory effects of sarcodonin A and its derivative in LPS-induced BV-2 microglia. Before adding the detection reagent, BV-2 cells (2×10^5/mL) were incubated in the 96-well plate and cultured at 37° C. for 24 h. The experimental groups were divided into a control group (DMSO), an LPS-treated group ([…] of LPS) and a compound-treated group (1 μg/mL of LPS+10 μM compound), and then incubation was performed for 24 h. The nitrite concentration in the culture medium was measured by a commercial analysis kit. The main principle was based on the griess method. Supernatant of the BV-2 cells (50 μL) reacted with the griess reagent (50 μL of griess regent I and 50 μL of griess regent II). The absorbance was measured at 540 nm on the Bio-Tek micropore plate reader, and the nitrite concentration was calculated by a nitrite standard curve with sodium nitrite as the standard.
The inhibition rate %=(ALPS−Acompound)/(ALPS−Ablank)×100;

LPS-induced BV-2 cells [4] = assay: M1/M2 marker cytokine secretion by ELISA; conditions: for production of IL-1β / production of IL-6 / production of IL-10 / production of TNF-α: 3 and 10 μM, 1 h pretreatment then LPS 24 h, effect enhanced as concentration increases, FIG. 4
Procedure: To further evaluate the role of 1 and 6 in M1 polarization of the LPS-induced microglia, the release of pro-inflammatory M1 cytokines (including TNF-α, IL-6 and IL-1β) and anti-inflammatory M2 cytokines (including IL-10) in the LPS-induced BV-2 cells was detected by ELISA. The BV-2 cells were incubated in a 6-well plate (2 mL/well) at a density of 2×10^5 cfu, cultured in a constant-temperature incubator of 5% CO2 at 37° C. for 24 h, then pretreated with different concentrations of compounds 1 and 6 (3 μM, 10 μM), LPS (1 μg/mL) and DMSO for 1 h, and then induced by the LPS for 24 h. Supernatant of the cell culture medium was collected, and the concentrations of TNF-α, IL-6, IL-10 and IL-1β were measured according to manufacturer's instructions.

LPS-induced BV-2 cells [5] = assay: Nuclear translocation of NF-κB subunit p65 by Western blotting; conditions: Western blot of nuclear and cytoplasmic parts
Text: The nuclear translocation of NF-κB subunit p65 as an activation index of NF-κB is examined. The cells were collected in the same way for Western blotting. A extraction kit is configured to isolate and extract nuclear and cytoplasmic parts according to the instructions. The primary antibodies are anti-NF-κB p65 (1:1000), anti-Lamin B1 (1:1000) and anti-GAPDH (1:1000).

[6] = test system: LPS-induced BV-2 microglia; assay: MAPK phosphorylation (ERK1/2, JNK, p38 MAPK) by Western blotting; conditions: Western blot, 1 h pretreatment then LPS 1 μg/mL 30 min; FIG. 6
Procedure: Previous studies have shown that the over-activation of MAPK signaling cascade is related to neuroinflammatory reaction^[9-10]. In order to clarify the action mode of 6 in reversing the M1 polarization of the microglia, the effects of 6 on phosphorylation levels of ERK1/2, […] and p38 MAPK in the LPS-induced BV-2 microglia are further studied. BV-2 cells (5×10^5 cfu) cultured in a 6 cm dish are pretreated with compound 1 or 6 ([…]) respectively for 1 h, and then added with the LPS (1 μg/mL) for 30 min. The similar method is used by Western blotting, and the primary antibodies are: […] (1:1000), anti-GAPDH (1:1000), anti-ERK1/2 (1:1000), anti-phosphorylated ERK1/2 (1:1000), anti-p38 MAPK (1:2000), anti-phosphorylated p38 MAPK (1:1000), anti-JNK (1:2000) and anti-phosphorylated JNK (1:1000).

[7] = Western blot, 1 h pretreatment then 1 μg/ml LPS 24 h

Row | SMILES | mRNA expression of COX-2 induced by the LPS (LPS-induced BV-2 cells [1]; M1 marker) | mRNA expression of IL-6 induced by the LPS (LPS-induced BV-2 cells [1]; M1 marker) | mRNA expression of TNF-α induced by the LPS (LPS-induced BV-2 cells [1]; M1 marker) | mRNA level of IL-10 (LPS-induced BV-2 cells [1]) | mRNA level of ARG-1 (LPS-induced BV-2 cells [1]) | protein expression of ARG-1 (LPS-induced BV-2 cells [2]; [7]) | protein expression of LPS-induced iNOS (LPS-induced BV-2 cells [2]; [7]) | M1/M2 polarization of the LPS-induced BV-2 cells (LPS-induced BV-2 cells [2]) | inhibition of NO production (in words) [3] | production of IL-1β (LPS-induced BV-2 cells [4]) | production of IL-6 (LPS-induced BV-2 cells [4]) | production of IL-10 (LPS-induced BV-2 cells [4]) | production of TNF-α (LPS-induced BV-2 cells [4]) | further results
1 | CC(CO)C1=C2C3=CC=C(C=O)C[C@H](O)[C@]3(C)CC[C@@]2(C)CC1 (some centres unmarked) [Compound 1, sarcodonin A] | does not affect | inhibits | inhibits | does not affect | enhance | promotes | inhibits | inhibit the M1 polarization and enhance M2 polarization | can inhibit | inhibitory effect | inhibitory effect | promoting effect | inhibitory effect | 
2 | CC(COC(=O)c1ccccc1Cl)C1=C2C3=CC=C(C=O)CC(O)C3(C)CCC2(C)CC1 (centres unmarked) [Compound 3] |  |  |  |  |  |  |  |  | higher inhibitory activity |  |  |  |  | 
3 | CC(COC(=O)c1ccccc1Br)C1=C2C3=CC=C(C=O)CC(O)C3(C)CCC2(C)CC1 (centres unmarked) [Compound 4] |  |  |  |  |  |  |  |  | higher inhibitory activity; also recorded: highest inhibitory activity in o-halogen-substituted 19-O-benzoyl derivatives |  |  |  |  | 
4 | CC(=O)OCC(C)C1=C2C3=CC=C(C=O)CC(OC(C)=O)C3(C)CCC2(C)CC1 (centres unmarked) [Compound 7] |  |  |  |  |  |  |  |  | strong inhibitory effect similar to that of 6 |  |  |  |  | 
5 | CC(COC(=O)c1ccc(Br)cc1)C1=C2C3=CC=C(C=O)CC(O)C3(C)CCC2(C)CC1 (centres unmarked) [Compound 6] | inhibits | inhibits | inhibits | promotes | promotes | more obvious promoting effect | more obvious inhibitory effect | inhibit the M1 polarization and enhance M2 polarization | higher inhibitory activity; also recorded: strongest activity | inhibitory effect | inhibitory effect | promoting effect | inhibitory effect | mRNA expression of IL-1β induced by the LPS (LPS-induced BV-2 cells [1]; M1 marker): inhibits; mRNA expression of iNOS induced by the LPS (LPS-induced BV-2 cells [1]; M1 marker): inhibits; protein expression of COX-2 (LPS-induced BV-2 cells [2]; [7]): more obvious inhibitory effect; LPS-stimulated nuclear translocation of NF-κB p65 (LPS-induced BV-2 cells [5]): significantly inhibits; inhibitory activity on NO production (inhibition rate) ([3]; compared with the LPS control group): 55%; activation (phosphorylation) of ERK1/2 induced by the LPS [6]: significantly inhibits; activation (phosphorylation) of INK induced by the LPS [6]: significantly inhibits; phosphorylation of p38 MAPK [6]: little effect; comparison of effect on cytokine production at the same concentration (LPS-induced BV-2 cells [4]; IL-6, IL-1β, TNF-α, IL-10, FIG. 4): more effective than 1
